{"source": "patent US9234025B2", "about": "“Extracellular allosteric inhibitor binding domain from a tyrosine kinase receptor” (SANOFI, priority 2009, dated 2016)", "key": {"B9-FGFR3WT cell line": {"system": "B9-FGFR3WT cell line", "assay": "B9 myeloma cell proliferation, FGFR3WT", "format": "cell-based", "conditions": "0.1 μM SSR; FGF1 25 ng/ml", "description": "(§1) Cell proliferation was analysed on exponentially growing cells that were starved for 16 hours in IMDM (Invitrogen, 31980048), 0.2% FBS, 2 mM glutamine containing medium and seeded at 4,000 cells/well in 96-well microplates. After exposure to mitogens and/or SSR for 72 hours, cell proliferation was assessed with the use of the CellTiter 96 AQueous One Solution Cell Proliferation Assay (Promega, Madison, Wis., USA) according to manufacturer's instructions.\n(§2) For studying SSR effect on FGFR3, the proliferation of B9-myeloma cells, expressing either FGFR3WT or FGFR3TD (a constitutively activated FGFR3 variant induced by the K650E mutation, even in the absence of any ligand; Truedel et al; blood 2006), was assayed by stimulation with FGF1 (25 ng/ml)."}, "FGFR2^∂23-Y328D": {"system": "FGFR2^∂23-Y328D", "assay": "FGF2-induced ERK1/2 phosphorylation in HEK293 cells, FGFR2 Y328D", "format": "cell-based, human", "conditions": "Erk1/2 western blot densitometry IC50", "description": "(§3) HEK293 cells were either transiently of stably transfected (using FuGENE 6, Roche) with hFGFR2IIIca or hFGFR2IIIca-Y328D cloned in pcDNA3 (Invitrogen). Stably transfected cells were grown in G418 (400 μg/ml) containing medium. Before stimulation, the cells were starved overnight in DMEM (0% serum), and pre-incubated with […] at the required concentration. The cells were subsequently stimulated with FGF2 (concentration between 0.5-10 ng/ml) for 5 min at 37° C. with or without SSR or SU5402 at 1 μM. After washing with ice-cold phosphate-buffered saline containing phosphatase inhibitors (Roche), cells were lysed in RIPA buffer (Tris 30 mM HCl pH 7.5, 150 mM NaCl, 1 mM EDTA, 1% triton-X, 0.5% w/v deoxycholate, containing phophatase and protease inhibitors as described by the manufacturer (Roche)). Cell lysates were centrifuged at 12,000 g for 10 min, and the supernatants were collected. Proteins were separated on Novex polyacrylamide gels (Invitrogen, Carlsbad, Calif.) and subsequently transferred onto Hybond ECL nitrocellulose membranes (Amersham Pharmacia). Following incubation with 5% non-fat milk powder in PBS, the membranes were incubated overnight at 4° C. with the following antibodies: phospho-ERK1/2 (CST:9101), phospho-FRS2 (CST:3861), phospho-PLCγ (CST:2821) and FGFR2 (F0300, Sigma)."}, "various FGFRs": {"system": "various FGFRs", "assay": "additional SPA assays, FGF ligands to various FGFRs", "format": "binding"}, "[1]": {"target": "T1, hFGFR1IIIcα-Hemagluttinin (Homo sapiens, UniProt P11362)", "T1 construct": "expressed in transfected cells; host or cells: rat fat-pad endothelial cells (RFPEC)", "T1 sequence (P11362 22-822)": "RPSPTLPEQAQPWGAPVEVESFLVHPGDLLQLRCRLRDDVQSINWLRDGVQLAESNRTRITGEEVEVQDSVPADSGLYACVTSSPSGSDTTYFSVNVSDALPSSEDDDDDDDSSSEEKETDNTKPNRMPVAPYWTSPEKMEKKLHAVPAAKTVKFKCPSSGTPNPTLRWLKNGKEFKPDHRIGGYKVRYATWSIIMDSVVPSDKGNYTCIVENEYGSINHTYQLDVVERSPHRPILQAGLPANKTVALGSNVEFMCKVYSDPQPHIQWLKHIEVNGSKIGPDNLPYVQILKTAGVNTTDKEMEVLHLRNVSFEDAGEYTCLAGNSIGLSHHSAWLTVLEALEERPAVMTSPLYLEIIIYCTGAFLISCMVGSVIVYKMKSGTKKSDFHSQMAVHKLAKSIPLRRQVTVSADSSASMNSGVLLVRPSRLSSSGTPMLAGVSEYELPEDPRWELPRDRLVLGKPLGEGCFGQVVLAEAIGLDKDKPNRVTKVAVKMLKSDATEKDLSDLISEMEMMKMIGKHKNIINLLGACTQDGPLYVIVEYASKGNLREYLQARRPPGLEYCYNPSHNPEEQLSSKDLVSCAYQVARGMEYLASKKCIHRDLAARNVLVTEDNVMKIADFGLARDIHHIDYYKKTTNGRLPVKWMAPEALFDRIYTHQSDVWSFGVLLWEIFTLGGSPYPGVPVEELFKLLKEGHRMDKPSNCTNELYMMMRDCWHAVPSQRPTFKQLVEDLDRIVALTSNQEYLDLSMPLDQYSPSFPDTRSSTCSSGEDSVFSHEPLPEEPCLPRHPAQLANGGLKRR", "assay": "FGFR1 phosphorylation in rat fat-pad endothelial cells", "format": "cell-based", "description": "Rat fat-pad endothelial cells, stably transfected with hFGFR1IIIcα-Hemagluttinin, were grown to 80-90% confluency and serum starved (0.5% FBS) for 24 h. Stimulation was performed during 5 minutes with FGF2 at 2 ng/ml in combination with SSR or DMSO (as control). Cell lysates were centrifuged at 12,000 g for 10 min, and the supernatants were collected. HA-tagged proteins were immunoprecipitated by incubation of cell lysates overnight at 4° C. in the presence of agarose conjugated anti-HA antibodies. Immune complexes were washed three times with 1 ml of lysis buffer; proteins were eluted via incubation with 50 μl of 2×SDS sample buffer and boiling. Proteins were separated on Novex polyacrylamide gels (Invitrogen, Carlsbad, Calif.) and subsequently transferred onto Hybond ECL nitrocellulose membranes (Amersham Pharmacia). Following incubation with 5% non-fat milk powder in PBS, the membranes were incubated overnight at 4° C. with the following antibodies: pFGFR (CST: 3471) and FGFR1 (CST: 3472)."}, "HUVEC": {"system": "HUVEC", "assay": "cell migration with various growth factors (modified Boyden chamber)", "format": "cell-based, human", "conditions": "SSR 1 μM", "description": "Cell migration was assessed by a modified Boyden chamber assay, by using 24-well inserts containing 8 μm pore size transwell permeable supports with a polycarbonate membrane (Costar, Corning Inc.). Exponentially growing cells were starved in 0.2% FBS containing medium for 16 hours and resuspended at 5×10^5 cells/ml in the same low serum medium. 100 μl of the cell suspension were seeded in the upper chamber, while chemoattractants and/or SSR were placed in the lower chamber. Chemoattractants tested include: human PDGF-BB, IGF-I, PIGF, EGF, all at 100 ng/ml, in the presence or absence of SSR (1 μM). 10% FBS containing medium was used a positive control. After 6 hours incubation at 37° C., cells on the upper side of the membrane were scraped using a cotton swab, while migrated cells on the lower surface were fixed with 1% paraformaldehyde in PBS and nuclei stained with DAPI for quantification using a fluorescent microsope. Quanitifcation is performed by making 5 random images at a magnification of 10× and by counting the number of nuclei."}, "FGFR2": {"system": "FGFR2", "assay": "FRS2, Erk1/2 and PLCγ phosphorylation in FGFR2-transfected HEK293 cells (western blot)", "format": "cell-based, human", "conditions": "compound at 1 μM", "description": "as §3\nIn order to evaluate SSR effect on FGFR-controlled phosphor-signalling, HEK293 cells have been transfected with FGFR2 and the two main pathways following FGFR autophosphorylation, PLCγ and FRS2, have been studied by western blot in comparison with a published FGFR tyrosine kinase inhibitor SU5402 described to inhibit FGFR-dependent FRS2 and PLCγ cascades (Zhen et al., Oncogene 2007). In such cells, FGF induces FRS2, Erk1/2 and PLCγ phosphorylation. […] More generally, these differences in phosphorylation can be used as reporter to evaluate allosteric modulators."}, "B9-FGFR3TD cell line": {"system": "B9-FGFR3TD cell line", "assay": "B9 myeloma cell proliferation, FGFR3TD (K650E)", "format": "cell-based", "conditions": "constitutively activated FGFR3 K650E", "description": "as §1, §2"}}}
{"smiles": "COc1c(C)c(C(=O)c2ccc(N)c(C(=O)[O-])c2)n2ccccc12.[Na+]", "note": "[SSR]", "values": [{"measurement": "FGF1-induced proliferation of B9-FGFR3WT cells", "setting": "B9-FGFR3WT cell line", "result": "inhibited"}, {"measurement": "sensitivity to SSR inhibition, FGFR2-Y328D compared to FGFR2-WT", "setting": "FGFR2^∂23-Y328D", "result": "about 5 times less sensitive"}, {"measurement": "binding of different FGF ligands to various FGFRs", "setting": "various FGFRs", "result": "blocking the binding of different FGF ligands to various FGFRs"}, {"measurement": "FGF2-induced FGFR1 tyrosine phosphorylation", "setting": "[1]; SSR in the nanomolar concentration range", "result": "highly reduced"}, {"measurement": "residual FGFR1 tyrosine phosphorylation", "setting": "[1]; even at high doses", "result": "does not completely eliminate FGFR1 tyrosine phosphorylation"}, {"measurement": "cellular response (migration) induced by EGF", "setting": "HUVEC; EGF 100 ng/ml", "result": "did not affect"}, {"measurement": "cellular response (migration) induced by IGF", "setting": "HUVEC; IGF-I 100 ng/ml", "result": "did not affect"}, {"measurement": "cellular response (migration) induced by PDGF-BB", "setting": "HUVEC; PDGF-BB 100 ng/ml", "result": "did not affect"}, {"measurement": "cellular response (migration) induced by PIGF", "setting": "HUVEC; PIGF 100 ng/ml", "result": "did not affect"}, {"measurement": "FGF-induced FRS2 phosphorylation", "setting": "FGFR2", "result": "only inhibits FRS2 pathway"}, {"measurement": "FGF-induced PLCγ phosphorylation", "setting": "FGFR2", "result": "doesn't inhibit"}, {"measurement": "proliferation of B9-FGFR3TD cells", "setting": "B9-FGFR3TD cell line", "result": "insensitve"}]}
